Experimental findings from publication PMC6150378, “Chemical Constituents from the Flower of Hosta plantaginea with Cyclooxygenases Inhibition and Antioxidant Activities and Their Chemotaxonomic Significance” (Molecules : A Journal of Synthetic Chemistry and Natural …, 2017) are described below.

A short description of test [1]: Antioxidant assay: DPPH radical-scavenging activity. The settings on record: DPPH method; regression using five concentrations (500, 200, 100, 50, 25 μM); 517 nm, 40 min at 30 °C. How it is done:
DPPH radical-scavenging activity of the sample was measured as previously described with minor modifications. In a 96-well microplate, 150 μL of DPPH solution (200 μM) was added to 50 μL of the test sample in methanol at different concentrations. The OD values of the reaction mixtures was recorded at 517 nm using a Multiskan Go (Thermo Fisher Scientific, Inc., Waltham, MA, USA) for 40 min at 30 °C. The DPPH radical scavenging activity was calculated by the following equation: DPPH scavenging activity % = […], where Asample represents the absorbance of sample and DPPH, Ablank represents the absorbance of sample and CH3OH, Acontrol represents the absorbance of DPPH and CH3OH. […] L-ascorbic acid was used as the positive control in this experiment. All tests were run in triplicate, and values obtained from experiments were averaged.
(In general: DPPH is a stable violet radical that fades when it is reduced.)

Test [2] concerns the target T1, ovine COX-1 (Ovis aries, UniProt P05979).
T1 sequence (P05979 25-600): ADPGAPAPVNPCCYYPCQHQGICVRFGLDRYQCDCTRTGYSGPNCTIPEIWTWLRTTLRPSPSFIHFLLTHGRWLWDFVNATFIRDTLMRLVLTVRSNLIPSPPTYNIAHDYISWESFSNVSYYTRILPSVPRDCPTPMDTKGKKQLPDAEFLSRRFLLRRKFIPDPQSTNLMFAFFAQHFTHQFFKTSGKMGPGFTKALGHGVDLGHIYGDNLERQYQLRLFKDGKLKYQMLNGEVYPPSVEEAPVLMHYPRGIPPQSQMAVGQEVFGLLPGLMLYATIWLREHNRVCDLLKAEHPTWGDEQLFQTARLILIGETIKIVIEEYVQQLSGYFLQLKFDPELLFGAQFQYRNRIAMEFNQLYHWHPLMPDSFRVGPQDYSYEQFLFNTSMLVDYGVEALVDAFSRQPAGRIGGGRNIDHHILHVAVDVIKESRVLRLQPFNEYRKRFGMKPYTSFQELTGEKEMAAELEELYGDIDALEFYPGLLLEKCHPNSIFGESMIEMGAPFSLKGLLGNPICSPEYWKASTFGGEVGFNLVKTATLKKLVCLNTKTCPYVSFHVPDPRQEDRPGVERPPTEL
Source text: (§1) 2,2-Di-phenyl-1-picrylhydrazyl (DPPH) (Sigma Corporation, Ronkonkoma, New York, NY, USA), L-cysteine methyl ester and o-tolyl isothiocyanate (Meilun Biotech. Co. Ltd., Dalian, China), D-glucose, and L-glucose (Energy Chemical, Shanghai, China) were used. COX inhibitor screening assay kit was purchased from Cayman Chemical Company (Ann Arbor, MI, USA).

The target of test [3] is T2, ovine COX-2 (Ovis aries, UniProt P79208).
T2 sequence (P79208 17-603): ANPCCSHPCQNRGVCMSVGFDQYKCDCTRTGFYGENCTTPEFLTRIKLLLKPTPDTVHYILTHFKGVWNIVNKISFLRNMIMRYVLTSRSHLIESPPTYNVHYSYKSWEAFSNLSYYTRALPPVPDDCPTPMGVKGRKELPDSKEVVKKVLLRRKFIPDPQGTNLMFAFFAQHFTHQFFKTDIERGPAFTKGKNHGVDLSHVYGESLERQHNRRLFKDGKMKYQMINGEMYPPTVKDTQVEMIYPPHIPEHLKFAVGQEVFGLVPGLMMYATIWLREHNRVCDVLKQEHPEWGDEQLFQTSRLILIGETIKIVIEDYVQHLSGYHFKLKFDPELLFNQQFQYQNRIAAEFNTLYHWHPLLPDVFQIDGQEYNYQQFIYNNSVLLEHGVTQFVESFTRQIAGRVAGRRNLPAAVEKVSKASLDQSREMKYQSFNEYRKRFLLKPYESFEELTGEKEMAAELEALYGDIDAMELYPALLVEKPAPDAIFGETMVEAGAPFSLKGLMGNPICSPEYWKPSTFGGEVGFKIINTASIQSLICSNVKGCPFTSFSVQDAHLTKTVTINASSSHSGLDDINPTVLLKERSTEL
Source text: as §1

For the compound `C[C@@H]1O[C@@H](OC[C@H]2O[C@@H](OCCc3ccccc3)[C@H](O)[C@@H](O)[C@@H]2O)[C@H](O)[C@H](O)[C@H]1O` [Compound 6, phenethyl-O-rutinoside], the IC50 (in general, the concentration that inhibits the measured activity by half) in test [1] turned out to be 275 ± 14.8 µM; in test [2], 41.2 ± 1.5 µM; in test [3] it was 35.4 ± 1.6 µM.
In the case of `COc1cc(O[C@@H]2O[C@H](CO)[C@@H](O)[C@H](O)[C@H]2O)cc2c1C(=O)C[C@@H](c1ccc(O)cc1)O2` [Compound 1, hostaflavanone A], the IC50 in test [1] stood at 83.2 ± 3 µM; in test [2] it was 21.6 ± 1.2 µM; in test [3] it was 45.4 ± 3.3 µM.
The like results for `OC[C@H]1O[C@@H](OC[C@H]2O[C@@H](OCCc3ccccc3)[C@H](O)[C@@H](O)[C@@H]2O)[C@H](O)[C@@H](O)[C@@H]1O` [Compound 5, phenethanol-β-D-gentiobioside] were, in that order, 257 ± 13.8 µM, 38.4 ± 1.3 µM and 31.7 ± 2.9 µM.
The like results for `OC[C@H]1O[C@@H](OCCc2ccccc2)[C@H](O)[C@@H](O)[C@@H]1O` [Compound 4, phenethyl-O-β-D-glucopyranoside] were, in that order, 282 ± 5.2 µM, 15.5 ± 0.6 µM and 38.2 ± 3.9 µM.
For the compound `O=C1O[C@H]([C@@H](O)CO)C(O)=C1O` [L-ascorbic acid, reference compound], the IC50 in test [1] came out at 33.9 ± 1.1 µM.
